Test results reported in patent US20090215729A1, “MICROPARTICLE COMPOSITIONS TO MODIFY CANCER PROMOTING CELLS” (priority 2008, published 2009).

Tested on: 4t1-luc cancer cells
Experiment: syngeneic 4t1 mouse model of breast cancer, tumor volume growth
Type: in vivo
Details: Balb/c mice, tail vein injection 100 microliters, six administrations, twice a week starting day 1 after tumor challenge, caliper measurements, relative to PBS control
Protocol: In vivo testing was done with a syngeneic 4t1 model of breast cancer in immuno-competent Balb/c mice. […] Briefly, primary tumors were established in mammary tissue of 6 week old Balb/c mice by injection of 106 4t1-12B cells subcutaneously under the nipple. The mice were kept in standard housing and with a normal diet. Each group of mice (6-10 per group, 20 g±10% body weight) were injected (100 microliters) 2 times per week through the tail vein for a period of 3 weeks, starting either on day one or day six after the tumor challenge. Clodronate solution was dissolved in PBS and given intravenously starting on day one after tumor challenge. Control mice were injected intravenously through the tail vein with PBS. Tumor growth was measured in a blinded fashion with a caliper each week and tumor volumes were calculated using the measured dimensions. Body weights were recorded weekly, and mice were sacrificed on day 34.

Q: With `O=P(O)(O)C(Cl)(Cl)P(=O)(O)O` [Clodronate (5.6 mg/mL) in PBS, clodronate] as the compound, how does the “tumor volume growth of 4t1-luc cancer cells” value read?
A: did not inhibit the growth of 4 μl tumors relative to PBS control

Q: And the “tumor volume growth of 4t1-luc cancer cells” value (listed as clodronate solution)?
A: unable to inhibit growth of 4 μl tumors as effectively as clodronate-hydroxyapatite
